Peptide text beside a SMILES is read from it.
Tests used:
red blood cells = test: Hemolysis test; format: cell-based, rat; settings: 1 hour 37° C.
Description: Furthermore, it was confirmed whether hemolysis, in which blood cells are destroyed, occurs by treatment with the peptide of the present invention. In a state where the coagulation reaction of the collected rat blood was suppressed in a heparinized vacuum collection tube, it was transferred to an EP tube and centrifuged at 1,500 g for 10 minutes. After removing the supernatant plasma, the precipitated red blood cells were treated with 200 μl of 2.5% and 5% of the peptide of the present invention, respectively. A sample treated with 1% SDS was used as a positive control for hemolysis. Each sample was stored for 1 hour in a 37° C. incubator, and then centrifuged again at 1,500 g for 10 minutes. 200 μl of the supernatant was transferred to a 96-well plate, and the optical density was measured at a wavelength of 540 nm.

rat blood [1] = test: Blood coagulation test: optical density of supernatant; format: cell-based; settings: heparinized rat blood, CaCl2 added, 37° C. 10 minutes
Description: In addition, in order to evaluate the coagulation efficacy of the peptide of the present invention, the peptide of the Preparation Example was treated with rat blood, and its optical density was measured. Specifically, in a state where the coagulation reaction of the collected rat blood was suppressed in a heparinized vacuum collection tube, 300 μl of blood was transferred to a 15 ml conical tube, and 300 μl of the peptide of the present invention solution was added thereto and mixed gently. Then, 30 μl of 0.2 M CaCl2 solution was added thereto and incubated at 37° C. for 10 minutes to accelerate the coagulation reaction. Then, 10 ml of distilled water was carefully added thereto, and 200 μl of the uniformly dispersed supernatant was added to a 96-well plate, and the optical density was measured at a wavelength of 540 nm using a spectrophotometer. Likewise, Greenplast and RADA16 peptide preparations were used as controls.

rat blood [2] = test: Blood coagulation test: clotting time by tube inversion; format: cell-based; settings: 300 μl heparinized rat blood + 150 μl sample, peptides at 2.5%
Description: First, the clotting time of blood according to the treatment of the peptide of the present invention was evaluated. In a state where the coagulation reaction of the collected rat blood was suppressed in a heparinized vacuum collection tube, 300 μl of blood was transferred to an EP tube, and 150 μl of a solution in which the peptide of the present invention was dissolved in purified water was treated thereto. The clotting time was measured by inverting the tube at 10-second intervals and visually evaluating the flowability of the blood. As a control group, the RADA16 peptide sample and Greenplast (Greenplast Q, GC Green Cross) were used to conduct the experiment in the same manner as the peptide of the present invention.

## CC[C@H](C)[C@H](NC(=O)[C@H](CC(N)=O)NC(=O)CNC(=O)[C@H](C)NC(=O)[C@H](CC(C)C)NC(=O)[C@H](Cc1ccc(O)cc1)NC(=O)[C@H](C)NC(=O)[C@H](CCC(N)=O)NC(=O)[C@H](CO)NC(=O)[C@H](C)NC(=O)[C@@H](N)CO)C(=O)N[C@H](C(=O)O)[C@@H](C)O [Peptide of the present invention, SASQAYLAGNIT] (H-SASQAYLAGNIT-OH)
Red blood cells; 2.5% peptide, 200 μl
  hemolysis (optical density of supernatant at 540 nm): did not induce hemolysis
Red blood cells; 5% peptide, 200 μl
  hemolysis (optical density of supernatant at 540 nm): did not induce hemolysis

## CCCCCCCCCCCCOS(=O)(=O)[O-].[Na+] [SDS]
Red blood cells; 1% SDS positive control
  hemolysis (optical density of supernatant at 540 nm): hemolysis occurred

## RADA16
Rat blood [1]
  optical density (540 nm) of supernatant relative to negative control treated with distilled water: 0.7
Rat blood [2]
  Blood Clotting time: <30 s
Rat blood [2]; listed as RADA16 peptide
  Blood Clotting time: less than 30 sec
